Source: patent US10226044B2, “Agricultural and horticultural composition and method for cultivating plant” (AJINOMOTO CO., INC., priority 2014, dated 2019)
Like-named read-outs stand apart in the source and are kept apart here.

Experiments:
[1] = test system: cherry tomato (Suncherry Pure); test: Amino acid analysis of tomato fruit obtained with sprinkling of Ile or Pro; type: in vivo
Method: (§1) After the plants of four root clumps uniformly grew, and flower buds began to appear, water (Con.), 10 mM L-isoleucine aqueous solution (Ile), or 10 mM proline aqueous solution (Pro) was sprinkled on the whole plants once a week. The sprinkled volume was adjusted in accordance with the growth of the plants, and it was 15 to 30 mL per one root clump.
Mature fruit were taken from each of the cherry tomato plants sprinkled with water, Ile, or Pro, and the amino acid content was analyzed for each. Two pieces of fruit were taken from the flower cluster of the second tier of one root clump, that is, a total of 8 pieces of fruit were taken for each test group. Fruit juice was pressed out of each piece of fruit, and the fruit juice was diluted 10 times with 0.02 N HCl, and subjected to filter filtration. The amino acids contained in the obtained filtrate were measured. Measurement of the amino acids was performed with High Speed Amino Acid Analyzer L-8800 (Hitachi) according to the manual of this instrument. The amounts of the amino acids (μmol/mL) in each fruit juice filtrate were calculated, and the averages for eight pieces of fruit were used as the amino acid amounts of the corresponding test group.

[2] = test system: cherry tomato (Suncherry Pure); test: Antioxidant capacity of tomato fruit extract (DPPH radical method); type: in vivo; details: 70% methanol extract of mature fruit; compared to tomatoes sprinkled with water (Con.) or Pro
Method: as §1

[3] = test system: Psy, Pds and Zds genes; test: Real-time PCR of genes involved in carotenoid synthesis in leaves; type: in vivo, cherry tomato; details: 10 mM Ile, leaves 24 hours after sprinkling
Method: A 10 mM isoleucine aqueous solution (Ile) or water (Con.) was sprinkled on leaf surfaces of cherry tomato plants, and RNA was isolated from the leaves 24 hours afterward. By using the isolated RNA, expression of the genes that participate in the biosynthesis of carotenoids, genes of phytoene synthase (Psy), phytoene desaturase (Pds), and ξ-carotene desaturase (Zds), were analyzed. The extraction of RNA, synthesis of cDNA, and real-time PCR analysis were conducted in the same manner as described above.

[4] = test system: LOX, JAR1, PI and MYC2 genes; test: Investigation of isoleucine concentration for sprinkling (I): gene expression; type: in vivo, cherry tomato (Suncherry Pure); details: 1 mM, 4 mM, 7 mM or 10 mM Ile, 20 mL per plant, sprinkled twice; leaves 3 hours after second sprinkling
Method: One week afterward, Ile was sprinkled again in the same manner, the leaves were collected 3 hours thereafter, and expression of the LOX, JAR1, PI and MYC2 genes were analyzed in the same manner as described in Example 5.

[5] = test system: LOX, JAR1, PI and MYC2 genes; test: Investigation of isoleucine concentration for sprinkling (II): gene expression; type: in vivo, tomato (Caddy); details: 50 mM Ile, 3 mL on leaf surfaces (0.01, 0.1, 50, 100 mM tested)
Method: Tomato plants (variety: Caddy, Tokita Seed) were cultivated in a biotron room in the same manner as described in Example 1. Three weeks after sowing, 3 mL of water, or a 0.01 mM, 0.1 mM, 50 mM, or 100 mM isoleucine aqueous solution (Ile) was sprinkled on leaf surfaces of each plant, sampling was performed from the second foliage leaves, and expression of LOX, JAR1, PI and MYC2 genes were analyzed in the same manner as described in Example

[6] = test system: middle size fruit-bearing tomato (Tsukutsuku-shi); test: Ripening and harvestable bunch number of middle size fruit-bearing tomato (Tsukutsuku-shi); type: in vivo; details: 3 mM Ile + 0.2% Squash
Method: For the test, middle size fruit-bearing tomato plants in the second half of their growth (variety, Tsukutsuku-shi) that were cultivated in a greenhouse and bore fruit of the 12th tier were used. Neighboring 12 root clumps of the tomato plants were selected, 6 root clumps of them were used for control group receiving no treatment, and the other 6 root clumps were used for the Ile treatment group. […] The total volume of the solution sprinkled on the plants of 6 root clumps was 600 ml. After the treatment, the change in color of tomatoes was confirmed and harvested from each bunch on 11th, […], and 27th days. When substantially all the fruit colored (ripened), or many fruit were ready to overmature, that is, when the top of the fruit was still green, the fruit were harvested. The numbers of bunches harvested on the 11th day after the treatment were 3 for the no treatment group, and 7 for the Ile treatment group. The numbers of bunches harvested on the 18th day after the treatment were 4 for the no treatment group, and 3 for the Ile treatment group.

[7] = cited from earlier work
[8] = test system: rice seeds; details: rice seeds treated with 0.2 to 20 mM isoleucine; cited from earlier work
[9] = fruit juice, plants sprinkled with 10 mM solution once a week, average of 8 fruit

SMILES: CC[C@H](C)[C@H](N)C(=O)O [Ile, L-isoleucine]
- many kinds of essential amino acids including branched chain amino acids and aromatic amino acids in fruit ([1]; 10 mM sprinkled once a week, compared to control): increased
- Ala in fruit juice [1, 9]: 4.51 µmol/mL
- Arg in fruit juice [1, 9]: 0.14 µmol/mL
- Asn in fruit juice [1, 9]: 0.55 µmol/mL
- Asp in fruit juice [1, 9]: 1.33 µmol/mL
- Cys in fruit juice [1, 9]: 0.21 µmol/mL
- Gln in fruit juice [1, 9]: 1.1 µmol/mL
- Glu in fruit juice [1, 9]: 6.46 µmol/mL
- Gly in fruit juice [1, 9]: 0.35 µmol/mL
- His in fruit juice [1, 9]: 0.19 µmol/mL
- Ile in fruit juice [1, 9]: 0.23 µmol/mL
- Leu in fruit juice [1, 9]: 0.39 µmol/mL
- Lys in fruit juice [1, 9]: 0.33 µmol/mL
- Met in fruit juice [1, 9]: 0.09 µmol/mL
- Phe in fruit juice [1, 9]: 0.5 µmol/mL
- Pro in fruit juice [1, 9]: 0.33 µmol/mL
- Ser in fruit juice [1, 9]: 0.67 µmol/mL
- Thr in fruit juice [1, 9]: 0.3 µmol/mL
- Total amino acids in fruit juice [1, 9]: 20.25 µmol/mL
- Trp in fruit juice [1, 9]: 0.06 µmol/mL
- Tyr in fruit juice [1, 9]: 0.082 µmol/mL
- Val in fruit juice [1, 9]: 0.21 µmol/mL
- γ-ABA in fruit juice [1, 9]: 6.42 µmol/mL
- antioxidant capacity (free radical-eliminating ability, DPPH) [2]: higher
- expression of Pds [3]: increased
- expression of Psy [3]: increased
- expression of Zds [3]: increased
- Expression of the LOX, JAR1, PI and MYC2 genes [4]: increased substantially in an Ile concentration-dependent manner
- Expression of the LOX, JAR1, PI and MYC2 genes [5]: promoted
- number of bunches harvested on the 11th day after the treatment ([6]; 10 labeled bunches, no treatment group: 3): 7
- number of bunches harvested on the 27th day after the treatment ([6]; no treatment group: 3): 1
- number of bunches harvested on the 18th day after the treatment ([6]; no treatment group: 4): 3
- number of immature (unripened, green) fruits among the harvested fruit of 10 bunches ([6]; no treatment group: 15 of 85): 8
- total harvested fruit of 10 bunches ([6]; no treatment group: 85): 86
- solubility of isoleucine in water ([7]; 20° C.): 40.2 mg/mL
- solubility of isoleucine in water [7]: about 0.3 M
- production of momilactones A and B [8]: promoted
